Experimental data as given in patent publication US10487068B2, “Pyridazine derivatives as RORc modulators” (Genentech, Inc., priority 2015, dated 2019).

What follows are compounds tested against T1, RORc ligand binding domain (Homo sapiens, UniProt P51449) (assay: In Vitro RORc Ligand Binding Assay). Conditions: RORc IC50, radioligand 25-[3H]hydroxycholesterol 6 nM; 0.6 ug/mL RORc receptor; 3 h at 25° C.
T1 sequence (P51449 269-508 limits assumed): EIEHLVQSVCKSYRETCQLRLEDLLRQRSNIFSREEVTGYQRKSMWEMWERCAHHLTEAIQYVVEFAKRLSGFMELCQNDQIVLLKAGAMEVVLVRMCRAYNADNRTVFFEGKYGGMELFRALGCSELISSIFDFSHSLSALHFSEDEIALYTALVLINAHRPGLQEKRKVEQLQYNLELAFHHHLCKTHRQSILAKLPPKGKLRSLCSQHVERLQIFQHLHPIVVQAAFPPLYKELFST

IC50 [nM] | SMILES
14.6 | CC1(C)[C@H]2CC[C@]1(c1cccc(S(=O)(=O)N3CCOCC3)n1)c1nnc(-c3c(F)cccc3F)cc12 [Example 137, 4-((6-((5R,8S)-3-(2,6-difluorophenyl)-9,9-dimethyl-5,6,7,8-tetrahydro-5,8-methanocinnolin-8-yl)pyridin-2-yl)sulfonyl)morpholine]
9.9 | CC1(NC(=O)c2cccc([C@@]34CC[C@@H](c5cc(-c6c(F)cccc6F)nnc53)C4(C)C)n2)CC1 [Example 40, 6-((5R,8S)-3-(2,6-difluorophenyl)-9,9-dimethyl-5,6,7,8-tetrahydro-5,8-methanocinnolin-8-yl)-N-(1-methylcyclopropyl)picolinamide]
15 | CC1(C)[C@H]2CC[C@]1(c1ncccn1)c1nnc(-c3c(F)cccc3F)cc12 [Example 1, (5R,8R)-3-(2,6-difluorophenyl)-9,9-dimethyl-8-(pyrimidin-2-yl)-5,6,7,8-tetrahydro-5,8-methanocinnoline]
13.8 | CC[C@](C)(O)c1coc(-c2cncc([C@@]34CC[C@@H](c5cc(-c6c(F)cccc6F)nnc53)C4(C)C)n2)n1 [Example 429, (S)-2-(2-(6-((5R,8S)-3-(2,6-difluorophenyl)-9,9-dimethyl-5,6,7,8-tetrahydro-5,8-methanocinnolin-8-yl)pyrazin-2-yl)oxazol-4-yl)butan-2-ol]
27 | CC1(C)[C@H]2CC[C@]1(c1nccc(C#N)n1)c1nnc(-c3c(F)cccc3F)cc12 [Example 43, 2-((5R,8R)-3-(2,6-difluorophenyl)-9,9-dimethyl-5,6,7,8-tetrahydro-5,8-methanocinnolin-8-yl)pyrimidine-4-carbonitrile]
22.8 | CC1(C)[C@H]2CC[C@]1(c1nc(C(N)=O)ncc1F)c1nnc(-c3c(F)cccc3F)cc12 [Example 250]
20 | CC(C)(O)c1cc(-c2cncc([C@@]34CC[C@@H](c5cc(-c6c(F)cccc6F)nnc53)C4(C)C)n2)[nH]n1 [Example 247, 2-(5-(6-((5R,8S)-3-(2,6-difluorophenyl)-9,9-dimethyl-5,6,7,8-tetrahydro-5,8-methanocinnolin-8-yl)pyrazin-2-yl)-1H-pyrazol-3-yl)propan-2-ol]
33.5 | CC1(C)[C@H]2CC[C@]1(c1cc(=O)cco1)c1nnc(-c3c(F)cccc3F)cc12 [Example 22, 2-((5R,8R)-3-(2,6-difluorophenyl)-9,9-dimethyl-5,6,7,8-tetrahydro-5,8-methanocinnolin-8-yl)-4H-pyran-4-one]
5.6 | CC1(C)[C@H]2CC[C@]1(c1cccc(-c3nc([C@@H](O)C(F)(F)F)n[nH]3)n1)c1nnc(-c3c(F)cccc3F)cc12 [Example 339, (R)-1-(5-(6-((5R,8S)-3-(2,6-difluorophenyl)-9,9-dimethyl-5,6,7,8-tetrahydro-5,8-methanocinnolin-8-yl)pyridin-2-yl)-1H-1,2,4-triazol-3-yl)-2,2,2-trifluoroethanol]
6.3 | CC1(C)[C@H]2CC[C@]1(c1cncc(-n3ccnc3)n1)c1nnc(-c3c(F)cccc3F)cc12 [Example 231]
10.6 | C[C@@H](O)c1ccn(-c2nccc([C@@]34CC[C@@H](c5cc(-c6c(F)cccc6F)nnc53)C4(C)C)n2)n1 [Example 348]
117 | CC1(C)[C@H]2CC[C@]1(c1nccc(C(=O)NCCO)n1)c1nnc(-c3c(F)cccc3F)cc12 [Example 95, 2-((5R,8R)-3-(2,6-difluorophenyl)-9,9-dimethyl-5,6,7,8-tetrahydro-5,8-methanocinnolin-8-yl)-N-(2-hydroxyethyl)pyrimidine-4-carboxamide]
6.9 | CC1(C)[C@H]2CC[C@]1(c1cncc(-c3nc(CC(N)=O)co3)n1)c1nnc(-c3c(F)cccc3F)cc12 [Example 384, 2-(2-(6-((5R,8S)-3-(2,6-difluorophenyl)-9,9-dimethyl-5,6,7,8-tetrahydro-5,8-methanocinnolin-8-yl)pyrazin-2-yl)oxazol-4-yl)acetamide]
11.7 | CC1(C)[C@H]2CC[C@]1(c1cncc(-c3nc(CS(=O)(=O)C4CC4)co3)n1)c1nnc(-c3c(F)cccc3F)cc12 [Example 435, 4-((cyclopropylsulfonyl)methyl)-2-(6-((5R,8S)-3-(2,6-difluorophenyl)-9,9-dimethyl-5,6,7,8-tetrahydro-5,8-methanocinnolin-8-yl)pyrazin-2-yl)oxazole]
13.9 | CC(C)(O)c1nc(-c2ncc(Cl)c([C@@]34CC[C@@H](c5cc(-c6c(F)cccc6F)nnc53)C4(C)C)n2)no1 [Example 292]
2.6 | CC1(C)[C@H]2CC[C@]1(c1cccc(N)n1)c1nnc(-c3c(F)cccc3F)cc12 [Example 72, 6-((5R,8S)-3-(2,6-difluorophenyl)-9,9-dimethyl-5,6,7,8-tetrahydro-5,8-methanocinnolin-8-yl)pyridin-2-amine]
1.7 | CC(C)(C)OC(=O)N1CC=C(c2nccc([C@@]34CC[C@@H](c5cc(-c6c(F)cccc6F)nnc53)C4(C)C)n2)CC1 [Example 344]

IC50 [nM] | SMILES
50.1 | CC(C)(O)c1nnc(-c2ncc(Cl)c([C@@]34CC[C@@H](c5cc(-c6c(F)cccc6F)nnc53)C4(C)C)n2)[nH]1 [Example 249]
5.4 | Cc1cnc(-c2cncc([C@@]34CC[C@@H](c5cc(-c6c(F)cccc6F)nnc53)C4(C)C)n2)o1 [Example 88, 2-(6-((5R,8S)-3-(2,6-difluorophenyl)-9,9-dimethyl-5,6,7,8-tetrahydro-5,8-methanocinnolin-8-yl)pyrazin-2-yl)-5-methyloxazole]
43.2 | CC1(C)[C@H]2CC[C@]1(c1nccc(C(N)=O)n1)c1nnc(-c3c(F)cccc3F)cc12 [Example 46, 2-((5R,8R)-3-(2,6-difluorophenyl)-9,9-dimethyl-5,6,7,8-tetrahydro-5,8-methanocinnolin-8-yl)pyrimidine-4-carboxamide]
553 | C[C@@H](CO)NC(=O)c1ccnc([C@@]23CC[C@@H](c4cc(-c5c(F)cccc5F)nnc42)C3(C)C)c1 [Example 68]
8.1 | CC1(C)[C@H]2CC[C@]1(c1cncc(-c3ccc(OCC(N)=O)nc3)n1)c1nnc(-c3c(F)cccc3F)cc12 [Example 402, 2-((5-(6-((5R,8S)-3-(2,6-difluorophenyl)-9,9-dimethyl-5,6,7,8-tetrahydro-5,8-methanocinnolin-8-yl)pyrazin-2-yl)pyridin-2-yl)oxy)acetamide]
12.4 | CC1(C)[C@H]2CC[C@]1(c1ccnc(C3CCN(C(=O)CO)CC3)n1)c1nnc(-c3c(F)cccc3F)cc12 [Example 355]
9.2 | CC1(C)[C@H]2CC[C@]1(c1cncc(-c3ccc(OCCO)nc3)n1)c1nnc(-c3c(F)cccc3F)cc12 [Example 420, 2-((5-(6-((5R,8S)-3-(2,6-difluorophenyl)-9,9-dimethyl-5,6,7,8-tetrahydro-5,8-methanocinnolin-8-yl)pyrazin-2-yl)pyridin-2-yl)oxy)ethanol]
39.5 | CC1(C)[C@H]2CC[C@]1(c1cncc(-n3ccncc3=O)n1)c1nnc(-c3c(F)cccc3F)cc12 [Example 421, 6′-((5R,8S)-3-(2,6-difluorophenyl)-9,9-dimethyl-5,6,7,8-tetrahydro-5,8-methanocinnolin-8-yl)-2H-[1,2′-bipyrazin]-2-one]
94.1 | CC1(C)[C@H]2CC[C@]1(c1cncc(OCC(N)=O)n1)c1nnc(-c3c(F)cccc3F)cc12 [Example 315, 2-((6-((5R,8S)-3-(2,6-difluorophenyl)-9,9-dimethyl-5,6,7,8-tetrahydro-5,8-methanocinnolin-8-yl)pyrazin-2-yl)oxy)acetamide]
3.3 | CC(C)(O)c1coc(-c2cncc([C@@]34CC[C@@H](c5cc(-c6c(F)cccc6Cl)nnc53)C4(C)C)n2)n1 [Example 371, 2-(2-(6-((5R,8S)-3-(2-chloro-6-fluorophenyl)-9,9-dimethyl-5,6,7,8-tetrahydro-5,8-methanocinnolin-8-yl)pyrazin-2-yl)oxazol-4-yl)propan-2-ol]
30.9 | Cc1nnc(-c2cncc([C@@]34CC[C@@H](c5cc(-c6c(F)cccc6F)nnc53)C4(C)C)n2)[nH]1 [Example 105]
32.4 | CC1(C)[C@@H]2CC[C@@]1(c1cncc(C(=O)NCCO)n1)c1nnc(-c3c(F)cccc3F)cc12 [Example 73, 6-((5S,8R)-3-(2,6-difluorophenyl)-9,9-dimethyl-5,6,7,8-tetrahydro-5,8-methanocinnolin-8-yl)-N-(2-hydroxyethyl)pyrazine-2-carboxamide]
71.1 | CC1(C)[C@H]2CC[C@]1(c1cccc(C(=O)N3CCS(=O)(=O)CC3)n1)c1nnc(-c3c(F)cccc3F)cc12 [Example 57, (6-((5R,8S)-3-(2,6-difluorophenyl)-9,9-dimethyl-5,6,7,8-tetrahydro-5,8-methanocinnolin-8-yl)pyridin-2-yl)(1,1-dioxidothiomorpholino)methanone]
108 | Cn1c([C@@]23CC[C@@H](c4cc(-c5c(F)cccc5F)nnc42)C3(C)C)ccc(C#N)c1=O [Example 8, 6-((5R,8S)-3-(2,6-difluorophenyl)-9,9-dimethyl-5,6,7,8-tetrahydro-5,8-methanocinnolin-8-yl)-1-methyl-2-oxo-1,2-dihydropyridine-3-carbonitrile]
10.9 | CC1(C)[C@H]2CC[C@]1(c1cncc(-c3ccn(CCC#N)n3)n1)c1nnc(-c3c(F)cccc3F)cc12 [Example 424, 3-(3-(6-((5R,8S)-3-(2,6-difluorophenyl)-9,9-dimethyl-5,6,7,8-tetrahydro-5,8-methanocinnolin-8-yl)pyrazin-2-yl)-1H-pyrazol-1-yl)propanenitrile]
8.5 | CC1(C)[C@H]2CC[C@]1(c1cncc(-c3c[nH]c(=O)[nH]3)n1)c1nnc(-c3c(F)cccc3F)cc12 [Example 174, 4-(6-((5R,8S)-3-(2,6-difluorophenyl)-9,9-dimethyl-5,6,7,8-tetrahydro-5,8-methanocinnolin-8-yl)pyrazin-2-yl)-1H-imidazol-2(3H)-one]
